Laboratory results: publication PMC5053890 (Bioorganic & medicinal chemistry, 2016)

Molecular target: T1, GVIA iPLA2 (Homo sapiens, UniProt O60733)
T1 sequence (O60733 1-806): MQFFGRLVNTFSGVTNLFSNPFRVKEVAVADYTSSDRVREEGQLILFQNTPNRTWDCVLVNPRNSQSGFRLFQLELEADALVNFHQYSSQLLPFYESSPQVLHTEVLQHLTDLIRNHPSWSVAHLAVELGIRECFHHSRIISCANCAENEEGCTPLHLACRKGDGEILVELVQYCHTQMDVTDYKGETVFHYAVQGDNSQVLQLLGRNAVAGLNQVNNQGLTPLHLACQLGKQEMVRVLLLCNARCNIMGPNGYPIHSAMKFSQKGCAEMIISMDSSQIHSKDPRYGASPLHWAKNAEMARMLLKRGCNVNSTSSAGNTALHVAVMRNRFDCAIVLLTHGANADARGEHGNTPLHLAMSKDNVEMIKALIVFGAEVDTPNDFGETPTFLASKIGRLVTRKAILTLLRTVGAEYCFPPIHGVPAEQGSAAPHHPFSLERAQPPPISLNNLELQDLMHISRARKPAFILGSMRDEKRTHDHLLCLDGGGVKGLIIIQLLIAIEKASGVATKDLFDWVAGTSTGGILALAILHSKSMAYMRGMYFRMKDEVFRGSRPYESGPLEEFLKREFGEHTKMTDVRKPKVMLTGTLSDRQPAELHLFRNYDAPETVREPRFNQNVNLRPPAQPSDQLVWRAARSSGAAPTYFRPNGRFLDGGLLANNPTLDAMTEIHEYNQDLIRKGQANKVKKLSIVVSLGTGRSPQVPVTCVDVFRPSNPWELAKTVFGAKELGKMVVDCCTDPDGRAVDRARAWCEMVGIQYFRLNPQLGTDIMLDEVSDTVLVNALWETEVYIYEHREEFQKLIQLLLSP
Assay: mixed micelle modified Dole assay, GVIA iPLA2
Format: biochemical
Settings: read-out: IC50 (converted from XI(50)); 0.091 mole fraction corresponds to 50 μM

CCCCCCCCSCC(=O)C(F)(F)F [Compound 3]
IC50: 110 nM
